Test results from patent US20250388858A1, “COMPOSITION FOR EMBRYONIC DEVELOPMENT, COMPRISING RAD51 ACTIVATOR, AND METHOD FOR IMPROVING EMBRYONIC DEVELOPMENT RATE USING SAME” (CHA UNIVERSITY INDUSTRY-ACADEMIC COOPERATION FOUNDATION, priority 2018, published 2025).

Experiments:
[1] = system: SCNT eggs (F/T SCNT); assay: Comet assay for DNA breaks; assay type: cell-based, mice; details: SCNT+RS-1 group vs SCNT group; FIG. 6
Protocol: In detail, to examine DNA damage, each sample in a 1 ml tube from which a culture medium was removed was suspended in 1% agarose at 37° C., and then fixed on a pre-coated slide (Trevigen). The slide was incubated at 4° C. for 4 hr, and then immersed in a solution (Trevigen) at 4° C. for 4 hr. The slide was removed from the lysis solution, and immersed in a 1×TAE buffer at 4° C. for 30 min, followed by electrophoresis for 30 min to 40 min. The slide was immersed in 1 M ammonium acetate at room temperature for 30 min, and then fixed at […] After fixing at room temperature for 30 min, incubation was performed at 42° C. for 20 min until agarose was completely dried. Thereafter, staining was performed using a 1×SYBR green I staining solution for 5 min.

[2] = system: SCNT eggs (F/T SCNT); assay: Embryonic development of SCNT eggs cultured with RS-1 (somatic cell cloning efficiency); assay type: cell-based, mice; details: for Number of embryos at 2-cell stage (%)+: based on the number of reconstructed oocytes; for Number of embryos at 4-cell stage (%)# / Number of blastocysts (%)# / Number of embryos at 2-cell stage block (%)#: based on the number of embryos at 2-cell stage
Protocol: 5IU PMSG and 5IU hCG hormone were administered into 8-week to 10-week-old female BDF/1 mice. 14 hr after hCG administration, cumulus cells were isolated from superovulated mice using hyaluronidase and eggs were collected. The isolated cumulus cells were refrigerated for use as somatic cell for donor cells, and the isolated eggs were stored in a KSOM culture medium in an incubator at 37° C. until experiments started. Thereafter, to carry out a somatic cell cloning experiment, nuclei were removed from matured eggs, and cumulus cells isolated in advance were directly injected as donor cells. The cumulus cells injected as donor cells were artificially activated in a culture medium containing a Rad51-stimulatory compound 1 (RS-1) for 6 hr. Thereafter, the cells were incubated in the culture medium containing RS-1 reagent for 22 hr. 22 hr later, the cells were incubated in a KSOM culture medium for 72 hr to 96 hr.
First, to examine whether RS-1 induced toxicity to egg development, IVF eggs and SCNT eggs (F/T SCNT) of Example 1 were treated with 0 μM, 1 μM, 5 μM, and 10 μM of RS-1, respectively, and an appropriate concentration was selected.

[3] = system: SCNT eggs (F/T SCNT); assay: CellROX reactive oxygen species staining of eggs at the 2-cell stage; assay type: cell-based, mice; details: SCNT+RS-1 group, FIG. 5A
Protocol: In detail, IVF group, SCNT+RS-1 group, and SCNT group at the 2-cell stage were incubated at 37° C. for 30 min in the dark in a culture medium supplemented with 5 μM of CellROX oxidative stress reagent for 30 min. Thereafter, each group was washed with 0.1% PVA-added D-PBS, and nuclei were stained with Hoechst (Sigma).

[4] = system: SCNT eggs (F/T SCNT); assay: Immunostaining of DNA damage biomarker rH2AX and Rad51; assay type: cell-based, mice
Protocol: In detail, IVF group, SCNT group, and SCNT+RS-1 group fixed in 4% paraformaldehyde were arrested at the 1-cell stage, 2-cell stage, and 4-cell stage, and then incubated with rH2AX (Abcam, ab22551) Rad51 (Abcam, ab63801) for 2 hr, followed by incubation in the presence of goat anti-mouse antibody diluted with PBS/0.1% BSA at 1:200, and goat anti-rabbit antibody at the same concentration for 1 hr. Thereafter, nuclei were stained with DAPI.

[5] = system: SCNT eggs; assay: RNA sequencing of cloned eggs at the 2-cell stage; assay type: cell-based, mouse; details: SCNT+RS-1 group
Protocol: To examine the effect of RS-1 treatment on SCNT eggs, RS-1 was treated to cloned eggs at the 2-cell stage during the somatic cell cloning procedure of Example 1, followed by RNA sequencing. At this time, IVF eggs were used as a negative control group. In detail, complementary DNA (cDNA) was amplified using a SMARTer ultra-low input RNA Kit for cDNA preparation (Takara, 634890) according to the manufacturer's instructions. cDNA was fragmented into about 200 bp fragments using a M220 sonicator (Covaris). The fragmented cDNAs were subjected to end-repair, and an adapter was ligated thereto. Sequencing libraries were prepared using a ScriptSeq v2 kit (Illumina) according to the manufacturer's instructions. Single-end sequencing was performed in HiSeq2500 (Illumina), and mapped to the mm9 mouse genome using STAR (v2.5.2b, https://github.com/alexdobin/STAR). Subsequently, […] (FPKM) was calculated by cuff link (v2.2.1) with default options.
To examine cloning mechanisms in the RS-1-treated SCNT egg (SCNT+RS-1) of Example 3 and the cloned egg (SCNT+Kdm4a) injected with Kdm4a mRNA during SCNT of Example 2, genes expressed in each egg were examined in the same manner as in Example 8.

[6] = system: SCNT eggs (F/T SCNT); assay: LC3B (autophagy) and MitoTracker (mitochondria) staining of eggs; assay type: cell-based, mice; details: 2-cell stage; SCNT+RS-1 group; FIG. 3B
Protocol: In detail, to evaluate mitochondria distribution, SCNT-derived somatic cell cloned eggs at the 1-cell stage, 2-cell stage, and 4-cell stage were stained using MitoTracker Orange CMTMRos (Molecular Probes). Mitotracker was used at a concentration of 300 nM in an M16 culture medium supplemented with 0.3% BSA at 37° C. for 30 min in the dark. After washing, the oocytes were fixed and immunofluorescently stained with LC3B antibody and then nuclei were stained with DAPI.

[7] = system: blastocysts of SCNT eggs; assay: Embryonic stem cell establishment from SCNT blastocysts; assay type: cell-based, mouse; details: SCNT+RS-1 blastocysts on MEF feeder cells; non-RS-1 treated group 17%; FIG. 9B
Protocol: In detail, blastocysts of each group was cultured on mouse embryonic fibroblast (MEF cells) feeder cells in a mouse embryonic stem cell culture medium. 20% KSR, 0.1 mM β-mercaptoethanol, 1% non-essential amino acids, 100 units/ml penicillin, 100 μg/ml streptomycin (all products available from GIBCO), 1.5×10^3 units/ml of recombination mLif (Chemicon) were used in the culture medium. Subculture was performed using Trypsin-EDTA, and the established embryonic stem cells of somatic cell cloned mice were treated with alkaline phosphatase. The established stem cells were evaluated by histochemical staining.

[8] = system: surrogate female ICR mice
Description: It is reported that a success rate of cloned mouse production is generally about 1% after normal somatic cell cloning. Therefore, implantation and cloned pups formation rates of mice were examined according to treatment of SCNT eggs with RS-1. In detail, SCNT and SCNT+RS-1 oocytes at the 2-cell stage were implanted into the uterus of surrogate female ICR mice at 0.5 days after pseudopregnancy. At 19.5 days after implantation, the somatic cell cloned mice were separated from the uterus of the surrogate mother, and then the cloned mice were nurtured together with normal ICR mice born on the same day by ICR mice smeared with the smell of the surrogate mother.

## O=C(Nc1ccc(Br)cc1)c1ccc(Br)c(S(=O)(=O)NCc2ccccc2)c1 [RS-1, 3-[(benzylamino)sulfonyl]-4-bromo-N-(4-bromophenyl)benzamide]
[1]
  DNA breaks (length of 3'-end, comet assay): DNA breaks were decreased
  generation of the abnormal 3'-end: significantly reduced
[2]; RS-1 1 μM, 45 NT oocytes
  Number of embryos at 2-cell stage (%)+: 42%
[2]; RS-1 1 μM
  Number of embryos at 4-cell stage (%)#: 35%
  Number of blastocysts (%)#: 8(19) %
  Number of embryos at 2-cell stage block (%)#: 7(16.7) %
[2]; RS-1 5 μM, 46 NT oocytes
  Number of embryos at 2-cell stage (%)+: 43%
[2]; RS-1 5 μM
  Number of embryos at 4-cell stage (%)#: 36%
  Number of blastocysts (%)#: 18(41.9) %
  Number of embryos at 2-cell stage block (%)#: 7(16.3) %
[2]; RS-1 10 μM, 54 NT oocytes
  Number of embryos at 2-cell stage (%)+: 50%
[2]; RS-1 10 μM
  Number of embryos at 4-cell stage (%)#: 47%
  Number of blastocysts (%)#: 28(56) %
  Number of embryos at 2-cell stage block (%)#: 3(6) %
[2]; RS-1 10 μM, control group 31%, Table 1
  embryonic development rate: 76%
[2]; treatment with RS-1 during SCNT, FIG. 3A, control group 17%
  embryonic development rate: 59%
[2]; treatment with RS-1 during SCNT, FIG. 3A, control group 39%
  number of embryos at the 2-cell stage block: 5%
[3]
  reactive oxygen species in the nuclei: tended to increase
[4]; 1-cell stage, SCNT+RS-1 group vs SCNT group
  DNA damage (rH2AX and Rad51 expression): significant reduction in DNA damage
[4]; 2-cell stage block, SCNT+RS-1 group compared with other groups
  DNA damage (rH2AX and Rad51 expression): very strong DNA damage in the nucleus
[5]
  number of genes significantly decreased: 414 genes
  number of genes significantly increased: 190 genes
[6]
  autophagy (LC3B) and mitochondria (mitotracker) expression pattern: intensive autophagy and mitochondria expression in the nucleus
[7]
  induction rate of embryonic stem cells: 45%
[8]; SCNT+RS-1 oocytes at the 2-cell stage implanted into surrogate ICR mice, generally about 1% after normal cloning, FIG. 9A
  production rate of cloned mouse: 5%
[8]; mouse, in vivo
  toxicity during development: no toxicity problem
